In patent US7592373B2 (Boehringer Ingelheim International GmbH, priority 2003, dated 2009):
Counter-ions that a name gives are not always drawn.

Structure (SMILES)	melting point
CCN(CC)CCOc1ccc(NC(=O)C#Cc2ccc(-c3ccccc3)cc2Cl)cc1Cl (as salt: hydrochloride) [Example 3.32, 3-(3-chlorobiphenyl-4-yl)propynoic acid-[3-chloro-4-(2-diethylaminoethoxy)phenyl]amide hydrochloride]	195 to 200 °C
CCN(CC)CCOc1ccc(NC(=O)C#Cc2ccc(Cl)cc2Cl)cc1 [Example 3.4, 3-(2,4-dichlorophenyl)propynoic acid-[4-(2-diethylaminoethoxy)phenyl]amide]	107 to 109 °C
CCN(CC)CCOc1ccc(NC(=O)C#Cc2ccc(-c3ccc(Cl)cc3)cc2)cc1Cl.Cl	226 to 233 °C
COc1cc(NC(=O)C#Cc2ccc(C(F)(F)F)cc2Cl)ccc1OCCN1CCC(C)CC1 [Example 4.270, 3-(2-chloro-4-trifluoromethylphenyl)propynoic acid-{3-methoxy-4-[2-(4-methylpiperidin-1-yl)ethoxy]phenyl}amide]	207 to 209 °C
CCN(CC)CCOc1ccc(NC(=O)C#Cc2ccc(Cl)cc2Cl)cc1OC (as salt: hydrochloride) [Example 4.7, 3-(2,4-dichlorophenyl)propynoic acid-[3-methoxy-4-(2-diethylaminoethoxy)phenyl]amide hydrochloride]	205 to 207 °C
NC1(c2ccc(C#CC(=O)Nc3ccc(-c4ccc(Cl)cc4)cc3)cc2)CC1 (as salt: trifluoroacetate) [Example 1.422, 3-[4-(1-aminocyclopropyl)phenyl]propynoic acid-(4′-chlorobiphenyl-4-yl)amide trifluoroacetate]	160 to 164 °C
O=C(C#Cc1ccc(C(F)(F)F)cc1Cl)Nc1ccc(OCCn2cccn2)cc1 [Example 3.43, 3-(2-chloro-4-trifluoromethylphenyl)propynoic acid-[4-(2-pyrazol-1-ylethoxy)phenyl]amide]	120 to 125 °C
O=C(C#Cc1ccc(-c2ccc(Cl)cc2)cc1)Nc1ccc(CN2CCCCC2)c(Cl)c1 [Example 3.20, 3-(4′-chlorobiphenyl-4-yl)propynoic acid-(3-chloro-4-piperidin-1-ylmethylphenyl)amide]	277 to 281 °C
CC1CCN(Cc2ccc(/C=C/C(=O)Nc3ccc(-c4ccc(Cl)cc4)cc3)cc2)CC1 [Example 5.2, (E)-N-(4′-chlorobiphenyl-4-yl)-3-[4-(4-methylpiperidin-1-ylmethyl)phenyl]acrylamide]	207 to 208 °C
CN1CCN(Cc2ccc(NC(=O)C#Cc3ccc(-c4ccc(Cl)cc4)cc3)cc2)CC1 [Example 3.8, 3-(4′-chlorobiphenyl-4-yl)propynoic acid-[4-(4-methylpiperazin-1-ylmethyl)phenyl]amide]	182 to 185 °C
CN(Cc1ccc(/C=C/C(=O)Nc2ccc(-c3ccc(Cl)cc3)cc2)cc1)C1CCOCC1 [Example 5.7, (E)-N-(4′-chlorobiphenyl-4-yl)-3-(4-{[methyl-(tetrahydropyran-4-yl)amino]methyl}phenyl)acrylamide]	196 to 197 °C
O=C(C#Cc1ccc(Cl)cc1)Nc1ccc2c(ccn2CCN2CCCC2)c1 [Example 4.9, 3-(4-chlorophenyl)propynoic acid-[1-(2-pyrrolidin-1-ylethyl)-1H-indol-5-yl]amide]	135 to 144 °C
CC(C)(O)C1CCN(Cc2ccc(C#CC(=O)Nc3ccc(-c4ccc(Cl)cc4)cc3)cc2)CC1 [Example 1.34, 3-{4-[4-(1-hydroxy-1-methylethyl)piperidin-1-ylmethyl]phenyl}propynoic acid-(4′-chlorobiphenyl-4-yl)amide]	194 to 195 °C
COc1cc(NC(=O)C#Cc2ccc(C(F)(F)F)cc2Cl)ccc1OCCN(C)CC1CC1 (as salt: hydrochloride) [Example 4.278, 3-(2-chloro-4-trifluoromethylphenyl)propynoic acid-{4-[2-(cyclopropylmethylmethylamino)ethoxy]-3-methoxyphenyl}amide hydrochloride]	173 to 176 °C
COc1cc(NC(=O)C#Cc2ccc(C(F)(F)F)cc2Cl)ccc1OCCN1CCc2ccccc2C1 (as salt: formate) [Example 4.275, 3-(2-chloro-4-trifluoromethylphenyl)propynoic acid-{4-[2-(3,4-dihydro-1H-isoquinolin-2-yl)ethoxy]-3-methoxyphenyl}amide formate]	92 to 95 °C
O=C(C#Cc1ccc(C(F)(F)F)cc1Cl)Nc1ccc(OCCn2cnnc2)cc1 [Example 3.44, 3-(2-chloro-4-trifluoromethylphenyl)propynoic acid-[4-(2-[1.2.4]triazol-4-ylethoxy)phenyl]amide]	223 to 227 °C
COC1CCN(Cc2ccc(NC(=O)C#Cc3ccc(-c4ccc(Cl)cc4)cc3)cc2)CC1 [Example 3.13, 3-(4′-chlorobiphenyl-4-yl)propynoic acid-[4-(4-methoxypiperidin-1-ylmethyl)phenyl]amide]	227 to 234 °C
CC1CC(C)CN(Cc2ccc(NC(=O)C#Cc3ccc(-c4ccc(Cl)cc4)cn3)cc2)C1 (centres unmarked) [Example 3.29, 3-[5-(4-chlorophenyl)pyridin-2-yl]propynoic acid-[4-(3,5-dimethylpiperidin-1-ylmethyl)phenyl]amide]	195 to 197 °C
O=C(C#Cc1ccc(CN2CCC(N3CCCC3)CC2)cc1)Nc1ccc(-c2ccc(Cl)cc2)cc1 [Example 1.38]	191 to 192 °C

More lines, now with the values ahead:

melting point	Structure (SMILES)
177 °C	O=C(CCc1ccc(CN2CCN3CCCC3C2)cc1)Nc1ccc(-c2ccc(Cl)cc2)cc1 (centres unmarked) [Example 6.16, N-(4′-chlorobiphenyl-4-yl)-3-[4-(hexahydropyrrolo[1,2-a]pyrazin-2-ylmethyl)phenyl]propionamide]
176 °C	O=C(CCc1ccc(CNCc2ccccc2)cc1)Nc1ccc(-c2ccc(Cl)cc2)cc1 [Example 6.38, 3-[4-(benzylaminomethyl)phenyl]-N-(4′-chlorobiphenyl-4-yl)propionamide]
240 to 241 °C	NC(=O)C1CCN(Cc2ccc(CCC(=O)Nc3ccc(-c4ccc(Cl)cc4)cc3)cc2)CC1 [Example 6.5, 1-{4-[2-(4′-chlorobiphenyl-4-ylcarbamoyl)ethyl]benzyl}piperidine-4-carboxylic acid amide]
208 °C	O=C(CCc1ccc(CNC2CC2)cc1)Nc1ccc(-c2ccc(Cl)cc2)cc1 (as salt: trifluoroacetate) [Example 6.43, N-(4′-chlorobiphenyl-4-yl)-3-(4-cyclopropylaminomethylphenyl)propionamide trifluoroacetate]
156 to 157 °C	O=C(CCc1ccc(CN2CCC[C@@H]2CO)cc1)Nc1ccc(-c2ccc(Cl)cc2)cc1 [Example 6.8, N-(4′-chlorobiphenyl-4-yl)-3-[4-((R)-2-hydroxymethylpyrrolidin-1-ylmethyl)phenyl]propionamide]
174 to 175 °C	CN(Cc1ccccc1)Cc1ccc(CCC(=O)Nc2ccc(-c3ccc(Cl)cc3)cc2)cc1 [Example 6.18, 3-{4-[(benzylmethylamino)methyl]phenyl}-N-(4′-chlorobiphenyl-4-yl)propionamide]
57 to 60 °C	CC(C)Nc1ccc2cc(NC(=O)C#Cc3ccc(C(F)(F)F)cc3Cl)ccc2n1 [Example 7.2, 3-(2-chloro-4-trifluoromethylphenyl)propynoic acid-(2-isopropylaminoquinolin-6-yl)amide]
